In patent US8309107B2, “Stable solutions of orlistat for pharmaceutical dosage forms” (Banner Pharmacaps, Inc., priority 2008, dated 2012):

Test: Compatibility of orlistat with surfactants
Format: physicochemical
Conditions: Chremophor EL emulsifying agent

Structure (SMILES): CCCCCCCCCCC[C@@H](C[C@@H]1OC(=O)[C@H]1CCCCCC)OC(=O)[C@H](CC(C)C)NC=O [orlistat]
- effect of surfactant on degradation of orlistat: accelerate degradation
